For assay [1], the system named is PCDH-ZM1-2 expressing cells (U87). The assay is described as follows: MTT inhibition of glioblastoma cell proliferation, ZM1-2 fusion protein expressing cells. As to conditions: Homo sapiens, 72 hours, read-out: Inhibitory activities (IC50, μM) of tested compounds on cells. It is filed as cell-based. From the text: (§1) First, a lentiviral vector PCDH (PCDH-EF1-MCS-T2A-Puro, SBI, product No.: CD510B-1, structure shown in FIG. 4) was used, and the nucleotide sequence as shown by SEQ ID NO: 7 or SEQ ID NO: 8 was cloned into the vector according to the instructions thereof, to prepare expression vectors which expressed fusion proteins respectively represented by SEQ ID NO: 3 and SEQ ID NO: 4. The expression vectors were respectively named and marked as “PCDH-ZM1-2” and “PCDH-ZM2-2”. Then, a viral packaging plasmid (SBI, product No. LV500A-1) was used to co-infect 293T cells with one of the vectors to prepare a lentivirus. The same method was performed to package the lentiviral vector PCDH and co-infect 293T cells, to prepare a lentivirus with the blank vector, which was named as “PCDH-blank”.
(§2) The U87 cells were infected with any of the lentiviruses as prepared above and screened by applying puromycin (0.5 μg/mL for screening, and 0.2 μg/mL for maintenance) to establish cell models which stably expressed the fusion proteins. The cell models were verified for the expression of the fusion proteins and the transcription of the fusion genes by immunoblotting and reverse transcription PCR, and cell lines which stably expressed fusion proteins ZM1-2 and ZM2-2 respectively were obtained finally and named as “PCDH-ZM1-2 expressing cells” and “PCDH-ZM2-2 expressing cells” respectively. Similarly, U87 cells were infected with the lentivirus PCDH-blank with the blank vector to obtain “PCDH-blank expressing cells” as a blank reference.
(§3) Those U87 cells which were cultured in a large dish and were in a logarithmic stage were washed once with sterile PBS, and then digested with 0.25% trypsin for 2 min. After all cells were digested to detach, complete DMEM medium containing 10% fetal bovine serum (FBS) was used to stop the digestion. The cells were counted and the cell concentration was adjusted to 20,000 cells/ml. Then, the cells were seeded into a Corning 96-well plate (2,000 cells/well) using a multi-channel pipette, and incubated in a 5% CO2 incubator at 37° C. for 24 hours. The compounds to be tested (crizotinib and the compounds represented by formulas A to H) were respectively dissolved in DMSO to prepare stock solutions, and then the stock solutions and the complete medium were used to prepare solutions with different concentrations of medicaments (0, 5, 10, 20, 40, 60, 80, 100 μM). The cells were incubated in the incubator for additional 72 hours, and then 20 μl of 3-(4,5-dimethylthiazole-2)-2,5-diphenyl tetrazolium bromide (MTT) was added into each well. After 1-3 hours in the incubator, the absorbance at 490 nm was determined using a microplate reader. The inhibition rate corresponding to each concentration was calculated, and the value of IC50 was calculated with GraphPad software.

Assay [2] concerns PCDH-blank expressing cells (U87). Briefly: MTT inhibition of glioblastoma cell proliferation, blank reference cells. It is filed as cell-based. Conditions: Homo sapiens, U-87 MG, 72 hours, read-out: Inhibitory activities (IC50, μM) of tested compounds on cells.
From the text: as §1, §2, §3

The subject of assay [3] is PCDH-ZM2-2 expressing cells (U87). The assay is described as follows: MTT inhibition of glioblastoma cell proliferation, ZM2-2 fusion protein expressing cells. The format is cell-based. As to conditions: Homo sapiens, 72 hours, read-out: Inhibitory activities (IC50, μM) of tested compounds on cells.
From the text: as §1, §2, §3

Assay [4] deals with human glioma cell line U87. Briefly: MTT inhibition of glioblastoma cell proliferation, U87 initial cells. Conditions: 72 hours, read-out: Inhibitory activities (IC50, μM) of tested compounds on cells. It is filed as cell-based. The method, then: The compound represented by formula A and crizotinib as well as compounds represented by formulas B to H that respectively have a structure similar to the structure of formula A were employed to carry out the experiment of testing the activity of inhibiting glioblastoma cell proliferation.
as §2, §3

The subject of assay [5] is PCDH-blank expressing cells. The assay is described as follows: Intracranial tumor model, survival, vector mice (2). It is filed as in vivo, nude mice. As to conditions: 50 mg/KG weight/day by gavage, over 6 weeks, FIG. 6. The method, then: (§4) First, a tumor-bearing mouse model was established. “PCDH-blank expressing cells” and “PCDH-ZM2-2 expressing cells” prepared in Example 4 were prepared into suspensions of 10^5 cells/5 μl with PBS respectively. Nude mice sterilized with 75% ethanol were inoculated with […] the cell suspensions. The cell inoculation position (2 mm away on the right side of anterior fontanel, and 2 mm backward) was determined using a brain stereotaxic apparatus for mouse; the injection depth was 3.5 mm and then elevated by 0.6 mm; and 5 μl of cell solutions respectively was injected to each mouse. After injection, the mice were kept still for 1 min, and then received a conventional skin closure. After intracranial tumors were observed, the tumor-bearing mice obtained with the “PCDH-blank expressing cells” were named as “vector mice (2)”, and the tumor-bearing mice obtained with the “PCDH-ZM2-2 expressing cells” were named as “ZM2-2 mice (2)”.
(§5) 8 Vector mice (2) and 8 ZM2-2 mice (2) were respectively administered with the compound represented by the formula A at a dose of 50 mg/KG weight/day. The compound was administrated once a day by gavage. At the same time, another group of 8 ZM2-2 mice (2) were given with normal saline, as a control group. The experiment lasted for over 6 weeks.

Assay [6] has as its system PCDH-ZM2-2 expressing cells. Briefly: Intracranial tumor model, survival and brain MRI, ZM2-2 mice (2). The format is in vivo, nude mice. The method, then:
as §4, §5
The brains of ZM2-2 mice (2) given with the compound represented by formula A were detected by nuclear magnetic resonance imaging on the 16th day after the compound represented by formula A was administered for the first time. […] See results in panel 7C.
Another 8 ZM2-2 mice (2) were also administered with the compound represented by formula A at a dose of 50 mg/KG weight/day. The compound was administrated once a day by gavage. Then, the compound administration was stopped on the 16th day after the first administration, and the brains were detected through nuclear magnetic resonance imaging on the 10th day after the compound withdrawal. […] Results are shown in panel 7D.

Assay [7] concerns PCDH-ZM2-2 expressing cells. Briefly: Inhibition of subcutaneous tumor growth in ZM2-2 mice (1). It is filed as in vivo, BALB/c (nu/nu) nude mice. As to conditions: 10 mg/KG/day by gavage, vs normal saline, FIG. 5. The method, then: First, a tumor-bearing mouse model was established. BALB/c (nu/nu) maternal nude mice, aged 6-8 weeks, with a weight of about 16-18 g were purchased from Vital River. “PCDH-blank expressing cells” and “PCDH-ZM2-2 expressing cells” prepared in Example 4 were prepared into suspensions of 10^7 cells/ml with PBS respectively. Nude mice sterilized with 75% ethanol were subcutaneously injected with 100 μl of the cell suspensions at the right scapular area, in which the PCDH-blank expressing cells were injected into seven nude mice, and PCDH-ZM2-2 expressing cells were injected into 21 nude mice. […] The tumor size and variations in mouse weight were measured twice a week. […]
When the tumors grew to have a volume of about 100 mm^3, the ZM2-2 mice (1) were divided into three groups according to mean tumor size, including a group of 7 mice which were administered with the compound represented by formula A, a group of 7 mice which were administered with crizotinib, and a control group of 7 mice. […] The tumor size and variations in mouse weight were measured twice a week. The tumor diameter was measured with a vernier caliper, and the equation for calculating tumor volume was: tumor volume=0.5*Length*Width^2.

Broadly, the IC50 is the concentration at which inhibition is half-maximal. With `C[C@@H](Oc1cc(-c2cnn(C3CCNCC3)c2)cnc1N)c1c(Cl)ccc(F)c1Cl` [Crizotinib], the half-maximal inhibitory concentration (IC50) in assay [1] came to 8.26 µM; in assay [2] it was 3.27 µM; in assay [3] it was 9.76 µM; in assay [4], 2.99 µM.
For `Cn1cc2cc(C(F)(F)c3nnc4ccc(-c5cnn(C6CC6)c5)nn34)c(F)cc2n1` [Formula A], the IC50 came to 1.34 µM in assay [1], 2.85 µM in assay [2], 1.83 µM in assay [3] and 3.51 µM in assay [4]. Moreover, the survival of mice result in assay [5] is recorded as “all survived”. The “intracranial tumor growth after compound withdrawal by nuclear magnetic resonance imaging” value in assay [6] (50 mg/KG weight/day stopped on 16th day, imaged 10th day after withdrawal, panel 7D) was “resumed rapid growth”. In assay [6] (50 mg/KG weight/day, 16th day after first administration, panel 7C), the “intracranial tumor size by nuclear magnetic resonance imaging” value was “obviously became smaller”. In assay [6] (intracranial, 50 mg/KG weight/day by gavage, over 6 weeks, FIG. 6), the “survival time of mice” value is “obviously prolonged the survival time”. In assay [7], the “growth of tumors (tumor volume)” value is reported as “significantly inhibit the growth of tumors”.
As to `CNC(=O)c1c(F)cc(-c2ccc3nnc(C(F)(F)c4cc5cn(C)nc5cc4F)n3n2)cc1F` [Formula B], the IC50 was determined as 7.63 µM in assay [1], 6.02 µM in assay [2], 5.59 µM in assay [3] and 8.15 µM in assay [4].
In the same order, the values of `Cn1cc2cc(C(F)(F)c3nnc4ccc(-c5ccc(NC(=O)C6CC6)c(F)c5)nn34)c(F)cc2n1` [Formula C] are 9.45 µM, 5.79 µM, 12.8 µM and 4.78 µM.
For the compound `Cn1cc(-c2ccc3nnc(C(F)(F)c4cc5cn(C)nc5cc4F)n3n2)cn1` [Formula D], the IC50 turned out to be 5.22 µM in assay [1], 4.93 µM in assay [2], 7.21 µM in assay [3] and 5.56 µM in assay [4].
In the case of `CC(C)n1cc(-c2ccc3nnc(C(F)(F)c4cc5cn(C)nc5cc4F)n3n2)cn1` [Formula E], the IC50 in assay [1] amounted to 32.6 µM; in assay [2] it was 21.6 µM; in assay [3], 21.9 µM; in assay [4], 17.2 µM.
Regarding `Cn1cc2cc(C(F)(F)c3nnc4ccc(-c5cnn(C6CC6)c5)cn34)c(F)cc2n1` [Formula F], the IC50 in assay [1] was 90.3 µM; in assay [2] it was 58.8 µM; in assay [3], 125 µM; in assay [4], 64.4 µM.
On the same counts, the results for `Cn1cc2cc(C(F)(F)c3nnc4ncc(-c5cnn(C6CC6)c5)cn34)c(F)cc2n1` [Formula G] are 6.75 µM, 9.25 µM, 15.2 µM and 9.07 µM.
On the same counts, the results for `Nc1nc2cc(F)c(Cc3nnc4ccc(-c5cnn(C6CC6)c5)nn34)cc2s1` [Formula H] are 23.3 µM, 19.4 µM, 45.1 µM and 25.4 µM.

The values above are taken from US11400088B2, “Uses of compound in preparation of drugs for treating brain glioma” (BEIJING PEARL BIOTECHNOLOGY LIMITED LIABILITY COMPANY, priority 2015, dated 2022).
